How the values were obtained:
Format in all cases: in vivo
Euschistus heros = Euschistus heros (Neotropical Brown Stink Bug); settings: 120 h, application rate of 200 ppm, sprayed soybean leaves, N2 nymphs, 5 days after infestation, read-out: effect in at least one of the two categories (mortality or growth inhibition)
Method: Soybean leaves on agar in 24-well microtiter plates were sprayed with aqueous test solutions prepared from 10,000 ppm DMSO stock solutions. After drying the leaves were infested with N2 nymphs. The samples were assessed for mortality and growth inhibition in comparison to untreated samples 5 days after infestation.

Spodoptera littoralis = Spodoptera littoralis (Egyptian Cotton Leaf Worm), sprayed cotton leaf discs; settings: foliar, 72 h, application rate of 200 ppm, L1 larvae, 3 days after infestation
Method: Cotton leaf discs were placed onto agar in 24-well microtiter plates and sprayed with aqueous test solutions prepared from 10,000 ppm DMSO stock solutions. After drying the leaf discs were infested with five L1 larvae. The samples were assessed for mortality, anti-feeding effect, and growth inhibition in comparison to untreated samples 3 days after infestation. Control of Spodoptera littoralis by a test sample is given when at least one of the categories mortality, anti-feedant effect, and growth inhibition is higher than the untreated sample.

Diabrotica balteata = Diabrotica balteata (Corn Root Worm); settings: 96 h, application rate of 200 ppm, sprayed maize sprouts, L2 larvae, 4 days after infestation, read-out: effect in at least one of the two categories (mortality or growth inhibition)
Method: Maize sprouts placed onto an agar layer in 24-well microtiter plates were treated with aqueous test solutions prepared from 10,000 ppm DMSO stock solutions by spraying. After drying, the plates were infested with L2 larvae (6 to 10 per well). The samples were assessed for mortality and growth inhibition in comparison to untreated samples 4 days after infestation.

Plutella xylostella = Plutella xylostella (Diamond Back Moth); settings: 120 h, application rate of 200 ppm, artificial diet, L2 larvae, 5 days after infestation, read-out: effect in at least one of the two categories (mortality or growth inhibition)
Method: 24-well microtiter plates with artificial diet were treated with aqueous test solutions prepared from 10,000 ppm DMSO stock solutions by pipetting. After drying, the plates were infested with L2 larvae (10 to 15 per well). The samples were assessed for mortality and growth inhibition in comparison to untreated samples 5 days after infestation.

Myzus persicae [1] = assay: Myzus persicae (Green Peach Aphid). Systemic Activity; settings: 144 h, test rate of 24 ppm, roots of infested pea seedlings in test solution, 6 days
Method: Roots of pea seedlings infested with an aphid population of mixed ages were placed directly into aqueous test solutions prepared from 10,000 DMSO stock solutions. The samples were assessed for mortality 6 days after placing seedlings into test solutions.

Bemisia tabaci = Bemisia tabaci (Cotton White Fly): Feeding/Contact Activity; settings: foliar, 144 h, application rate of 200 ppm, sprayed cotton leaf discs, adult white flies, 6 days after incubation
Method: Cotton leaf discs were placed on agar in 24-well microtiter plates and sprayed with aqueous test solutions prepared from 10,000 ppm DMSO stock solutions. After drying the leaf discs were infested with adult white flies. The samples were checked for mortality 6 days after incubation.

Myzus persicae [2] = assay: Myzus persicae (Green Peach Aphid): Feeding/Contact Activity; settings: foliar, 144 h, application rate of 200 ppm, sprayed sunflower leaf discs, aphid population of mixed ages, 6 days after infestation
Method: Sunflower leaf discs were placed onto agar in a 24-well microtiter plate and sprayed with aqueous test solutions prepared from 10,000 ppm DMSO stock solutions. After drying, the leaf discs were infested with an aphid population of mixed ages. The samples were assessed for mortality 6 days after infestation.

CCn1c(C(F)(F)F)cc2nc(-c3ncc(C(=O)NC4(C#N)CC4)cc3S(=O)(=O)CC)n(C)c2c1=O [Compound A25, N-(1-cyanocyclopropyl)-6-[5-ethyl-3-methyl-4-oxo-6-(trifluoromethyl)imidazo[4,5-c]pyridin-2-yl]-5-ethylsulfonyl-pyridine-3-carboxamide]
≥ 80%: percent effect (mortality or growth inhibition) at 200 ppm (Euschistus heros) | percent control (mortality, anti-feeding effect or growth inhibition) at 200 ppm (Spodoptera littoralis)

CCn1c(C(F)(F)F)cc2nc(-c3nc(N(C)CC(F)(F)F)ccc3S(=O)(=O)CC)n(C)c2c1=O [Compound A33]
≥ 80%: effect mortality or growth inhibition at 200 ppm (Diabrotica balteata) | percent effect (mortality or growth inhibition) at 200 ppm (Plutella xylostella) | percent control (mortality, anti-feeding effect or growth inhibition) at 200 ppm (Spodoptera littoralis)

CCn1c(C(F)(F)F)cc2nc(-c3ncc(C(=O)N(C)C4CC4)cc3S(=O)(=O)CC)n(C)c2c1=O [Compound A17, N-cyclopropyl-6-[5-ethyl-3-methyl-4-oxo-6-(trifluoromethyl)imidazo[4,5-c]pyridin-2-yl]-5-ethylsulfonyl-N-methyl-pyridine-3-carboxamide]
≥ 80%: percent effect (mortality or growth inhibition) at 200 ppm (Euschistus heros) | mortality at 24 ppm (Myzus persicae [1]) | percent effect (mortality or growth inhibition) at 200 ppm (Plutella xylostella)

CCn1c(C(F)(F)F)cc2nc(-c3nc(N)c(C#N)cc3S(=O)(=O)CC)n(C)c2c1=O [Compound A72]
≥ 80%: percent effect (mortality or growth inhibition) at 200 ppm (Euschistus heros) | mortality at 24 ppm (Myzus persicae [1]) | percent effect (mortality or growth inhibition) at 200 ppm (Plutella xylostella) | percent control (mortality, anti-feeding effect or growth inhibition) at 200 ppm (Spodoptera littoralis)

CCn1c(C(F)(F)F)cc2nc(-c3ncc(N(C)S(=O)(=O)C4CC4)cc3S(=O)(=O)CC)n(C)c2c1=O [Compound A37, N-[6-[5-ethyl-3-methyl-4-oxo-6-(trifluoromethyl)imidazo[4,5-c]pyridin-2-yl]-5-ethylsulfonyl-3-pyridyl]-N-methyl-cyclopropanesulfonamide]
≥ 80%: mortality at 200 ppm (Bemisia tabaci) | effect mortality or growth inhibition at 200 ppm (Diabrotica balteata) | percent effect (mortality or growth inhibition) at 200 ppm (Euschistus heros) | percent effect (mortality or growth inhibition) at 200 ppm (Plutella xylostella) | percent control (mortality, anti-feeding effect or growth inhibition) at 200 ppm (Spodoptera littoralis)

CCn1c(C(F)(F)F)cc2nc(-c3ncc(N(C)N(C)C(=O)C4CC4)cc3S(=O)(=O)CC)n(C)c2c1=O [Compound A22, N′-[6-[5-ethyl-3-methyl-4-oxo-6-(trifluoromethyl)imidazo[4,5-c]pyridin-2-yl]-5-ethylsulfonyl-3-pyridyl]-N,N′-dimethyl-cyclopropanecarbohydrazide]
≥ 80%: percent effect (mortality or growth inhibition) at 200 ppm (Euschistus heros) | mortality at 24 ppm (Myzus persicae [1]) | percent effect (mortality or growth inhibition) at 200 ppm (Plutella xylostella) | percent control (mortality, anti-feeding effect or growth inhibition) at 200 ppm (Spodoptera littoralis)

CCS(=O)(=O)c1cc(C)c(N)nc1-c1nc2cc(C(F)(F)F)n(C3CC3)c(=O)c2n1C [Compound A49, 2-(6-amino-5-methyl-3-ethylsulfonyl-2-pyridyl)-5-cyclopropyl-3-methyl-6-(trifluoromethyl)imidazo[4,5-c]pyridin-4-one]
≥ 80%: mortality at 200 ppm (Bemisia tabaci) | effect mortality or growth inhibition at 200 ppm (Diabrotica balteata) | mortality at 200 ppm (Myzus persicae [2]) | mortality at 24 ppm (Myzus persicae [1]) | percent effect (mortality or growth inhibition) at 200 ppm (Plutella xylostella) | percent control (mortality, anti-feeding effect or growth inhibition) at 200 ppm (Spodoptera littoralis)

CCn1c(C(F)(F)F)cc2nc(-c3ncc(C(=O)NCC#N)cc3S(=O)(=O)CC)n(C)c2c1=O [Compound A28, N-(cyanomethyl)-6-[5-ethyl-3-methyl-4-oxo-6-(trifluoromethyl)imidazo[4,5-c]pyridin-2-yl]-5-ethylsulfonyl-pyridine-3-carboxamide]
≥ 80%: percent effect (mortality or growth inhibition) at 200 ppm (Euschistus heros) | mortality at 200 ppm (Myzus persicae [2]) | mortality at 24 ppm (Myzus persicae [1]) | percent effect (mortality or growth inhibition) at 200 ppm (Plutella xylostella)

CCS(=O)(=O)c1ccc(NOC)nc1-c1nc2cc(C(F)(F)F)n(C3CC3)c(=O)c2n1C [Compound A46, 5-cyclopropyl-2-[3-ethylsulfonyl-6-(methoxyamino)-2-pyridyl]-3-methyl-6-(trifluoromethyl)imidazo[4,5-c]pyridin-4-one]
≥ 80%: effect mortality or growth inhibition at 200 ppm (Diabrotica balteata) | percent effect (mortality or growth inhibition) at 200 ppm (Euschistus heros) | percent effect (mortality or growth inhibition) at 200 ppm (Plutella xylostella) | percent control (mortality, anti-feeding effect or growth inhibition) at 200 ppm (Spodoptera littoralis)

CCn1c(C(F)(F)F)cc2nc(-c3ncc(NS(=O)(=O)C4CC4)cc3S(=O)(=O)CC)n(C)c2c1=O [Compound A36, N-[6-[5-ethyl-3-methyl-4-oxo-6-(trifluoromethyl)imidazo[4,5-c]pyridin-2-yl]-5-ethylsulfonyl-3-pyridyl]cyclopropanesulfonamide]
≥ 80%: mortality at 200 ppm (Myzus persicae [2])

CCn1c(C(F)(F)F)cc2nc(-c3ncc(NC(=O)C4(C#N)CC4)cc3S(=O)(=O)CC)n(C)c2c1=O [Compound A55, 1-cyano-N-[6-[5-ethyl-3-methyl-4-oxo-6-(trifluoromethyl)imidazo[4,5-c]pyridin-2-yl]-5-ethylsulfonyl-3-pyridyl]cyclopropanecarboxamide]
≥ 80%: mortality at 200 ppm (Myzus persicae [2]) | mortality at 24 ppm (Myzus persicae [1]) | percent effect (mortality or growth inhibition) at 200 ppm (Plutella xylostella) | percent control (mortality, anti-feeding effect or growth inhibition) at 200 ppm (Spodoptera littoralis)

CCn1c(C(F)(F)F)cc2nc(-c3ncc(N(C)/C=N/OC)cc3S(=O)(=O)CC)n(C)c2c1=O [Compound A27, N-[6-[5-ethyl-3-methyl-4-oxo-6-(trifluoromethyl)imidazo[4,5-c]pyridin-2-yl]-5-ethylsulfonyl-3-pyridyl]-N′-methoxy-N-methyl-formamidine]
≥ 80%: percent effect (mortality or growth inhibition) at 200 ppm (Plutella xylostella) | percent control (mortality, anti-feeding effect or growth inhibition) at 200 ppm (Spodoptera littoralis)

CCn1c(C(F)(F)F)cc2nc(-c3ncc(NC4(C#N)CC4)cc3[S+]([O-])CC)n(C)c2c1=O (centres unmarked) [Compound A57, 1-[[6-[5-ethyl-3-methyl-4-oxo-6-(trifluoromethyl)imidazo[4,5-c]pyridin-2-yl]-5-ethylsulfinyl-3-pyridyl]amino]cyclopropanecarbonitrile]
≥ 80%: effect mortality or growth inhibition at 200 ppm (Diabrotica balteata) | percent effect (mortality or growth inhibition) at 200 ppm (Plutella xylostella) | percent control (mortality, anti-feeding effect or growth inhibition) at 200 ppm (Spodoptera littoralis)

CCn1c(C(F)(F)F)cc2nc(-c3nc(C(=O)N(C)C4CC4)ccc3S(=O)(=O)CC)n(C)c2c1=O [Compound A18, N-cyclopropyl-6-[5-ethyl-3-methyl-4-oxo-6-(trifluoromethyl)imidazo[4,5-c]pyridin-2-yl]-5-ethylsulfonyl-N-methyl-pyridine-2-carboxamide]
≥ 80%: mortality at 200 ppm (Bemisia tabaci) | mortality at 200 ppm (Myzus persicae [2]) | mortality at 24 ppm (Myzus persicae [1]) | percent effect (mortality or growth inhibition) at 200 ppm (Plutella xylostella) | percent control (mortality, anti-feeding effect or growth inhibition) at 200 ppm (Spodoptera littoralis)

CCn1c(C(F)(F)F)cc2nc(-c3ncc(NC4CC4)cc3[S+]([O-])CC)n(C)c2c1=O (centres unmarked) [Compound A58, 2-[5-(cyclopropylamino)-3-ethylsulfinyl-2-pyridyl]-5-ethyl-3-methyl-6-(trifluoromethyl)imidazo[4,5-c]pyridin-4-one]
≥ 80%: effect mortality or growth inhibition at 200 ppm (Diabrotica balteata)

CCS(=O)(=O)c1ccc(NC(=O)OC(C)(C)C)nc1-c1nc2cc(C(F)(F)F)n(C3CC3)c(=O)c2n1C [Compound A63, Tert-butyl N-[6-[5-cyclopropyl-3-methyl-4-oxo-6-(trifluoromethyl)imidazo[4,5-c]pyridin-2-yl]-5-ethylsulfonyl-2-pyridyl]carbamate]
≥ 80%: mortality at 200 ppm (Bemisia tabaci) | effect mortality or growth inhibition at 200 ppm (Diabrotica balteata) | percent effect (mortality or growth inhibition) at 200 ppm (Plutella xylostella) | percent control (mortality, anti-feeding effect or growth inhibition) at 200 ppm (Spodoptera littoralis)

CCn1c(C(F)(F)F)cc2nc(-c3nc(C(C)=O)ccc3S(=O)(=O)CC)n(C)c2c1=O [Compound A70, 2-(6-acetyl-3-ethylsulfonyl-2-pyridyl)-5-ethyl-3-methyl-6-(trifluoromethyl)imidazo[4,5-c]pyridin-4-one]
≥ 80%: percent effect (mortality or growth inhibition) at 200 ppm (Plutella xylostella)

CCn1c(C(F)(F)F)cc2nc(-c3nc(Br)c(N)cc3S(=O)(=O)CC)n(C)c2c1=O [Compound A54, 2-(5-amino-6-bromo-3-ethylsulfonyl-2-pyridyl)-5-ethyl-3-methyl-6-(trifluoromethyl)imidazo[4,5-c]pyridin-4-one]
≥ 80%: effect mortality or growth inhibition at 200 ppm (Diabrotica balteata) | percent effect (mortality or growth inhibition) at 200 ppm (Plutella xylostella) | percent control (mortality, anti-feeding effect or growth inhibition) at 200 ppm (Spodoptera littoralis)

Reference: patent US10730872B2, “Pesticidally active heterocyclic derivatives with sulphur containing sustitutents” (SYNGENTA PARTICIPATIONS AG, priority 2015, dated 2020)
